# Results: publication PMC6627374, “Effects of the Pentapeptide P33 on Memory and Synaptic Plasticity in APP/PS1 Transgenic Mice: A Novel Mechanism Presenting the Protein Fe65 as a Target” (International Journal of Molecular Sciences, 2019)
# Where a SMILES comes first, the peptide text is derived from it.
# What was measured:
# Type in all cases: in vivo, mouse
# pT^668-APP = test: Western blot, pT^668-APP level in brain; conditions: 5 mg∙kg^−1 i.p., five days per week, six months; HC and CTX
# Protocol: (§1) For this study, three-month-old male and female WT and APP/PS1 mice (n = 37) were used. Four groups were defined: WT-vehicle (physiological saline) (male n = 4; female n = 6), WT-P33 (male n = 6; female n = 5), APP/PS1-vehicle (male n = 3; female n = 5), and APP/PS1-P33 (male n = 6; female n = 2). Animals were subjected to intraperitoneal (i.p.) injections of P33 (5 mg∙kg^−1) for five days per week, over a course of six months. The mice were kept in groups under constant temperature (23 ± 0.5 °C), lighting (12-h/12-h light/dark cycle, lights on at 7:00 a.m.), and humidity (~50%). Standard mouse chow and tap water were supplied ad libitum. All behavioral experiments were performed in the light period. Handling was done daily at the same time.
# Nine-month-old mice (three animals per group) were euthanized via cervical dislocation. […] To quantify the level of Aβ in the mice, we used a sandwich ELISA Kit (Innotest Amyloid-[…]) from Innogenetics (Gent, Belgium), following the instructions of the manufacturer. The absorbance values were measured at 450 nm on a 96-well plate reader (NOVOstar OPTIMA, BMG Labtech, Offenburg, Germany). […]
# The results of spine density and immunohistochemistry experiments were calculated with one-way ANOVA followed by Fisher’s LSD post hoc tests. […] Data were analyzed with SPSS (IBM SPSS Statistics 24), and were expressed as the mean ± standard error of the mean (SEM). […]
# synaptophysin (SYN) = test: Western blot, synaptophysin (SYN) level; conditions: four groups WT/APP/PS1, vehicle/P33; 5 mg∙kg^−1 i.p., six months
# Protocol: as §1, with “Handling was done daily at the same time.” left out
# (§2) Protein samples, identically prepared as for ELISA, (20 μg/lane) were separated on a 15% SDS-polyacrylamide gel (80 V, 20 min at RT; than 130 V, 60 min at RT) or on a 4–12% NuPAGE® Bis-Tris Gel (Thermo Fischer Scientific, Waltham, MA, USA, 200V, 30 min at RT) and transferred to a nitrocellulose membrane (Whatman, Maidstone, UK, 450 mA, 90 min at 4 °C). […] Membranes were scanned with a Bio-Rad Molecular Imager® ChemiDoc™ XRS+Imaging System (Bio-Rad Laboratories, Hercules, CA, USA) and evaluated with the Image Lab 4.0 software.
# (§3) The results of spine density and immunohistochemistry experiments were calculated with one-way ANOVA followed by Fisher’s LSD post hoc tests. […]
# PSD95 = test: Western blot, PSD95 level; conditions: APP/PS1 mice; 5 mg∙kg^−1 i.p., five days per week, six months
# Protocol: as §1, with “Handling was done daily at the same time.” left out
# as §2, §3
structure (smiles),measurement,setting,value
C[C@@H](N)C(=O)N1CCC[C@@H]1C(=O)N[C@H](C)C(=O)N1CCC[C@@H]1C(=O)N[C@H](CCC(=O)O)C(N)=O [P33] (HELM PEPTIDE1{[dA].[dP].[dA].[dP].[dE].[am]}$$$$V2.0),"pT^668-APP level, effect of P33 (in words)",pT^668-APP,had no significant effect on the pT^668-APP level
same,"SYN level, effect (in words)",synaptophysin (SYN),significant differences were not found between the groups
same,"PSD95 level, effect of P33 (in words)",PSD95,could be restored by applying P33 on APP/PS1 mice
